Test results published in PMC8233901, “D-Amino Acid-Containing Lipopeptides Derived from the Lead Peptide BP100 with Activity against Plant Pathogens” (International Journal of Molecular Sciences, 2021).
Where a SMILES comes first, the peptide text is derived from it. [ ]: non-standard residue; d: D form. The star is where a group is joined. Lauroyl = CCCCCCCCCCCC(=O)*; Hexanoyl = CCCCCC(=O)*; Butyryl = CCCC(=O)*

Key:
tobacco leaves = assay: Effect of peptide infiltration on tobacco leaves (lesion size); assay type: in vivo; details: for Size of the lesion (mm) 50 µM: 100 µL infiltrated into mesophyll of tobacco leaves; for Size of the lesion (mm) 50 µM / Size of the lesion (mm) 150 µM / Size of the lesion (mm) 250 µM: ± confidence interval
Method: The lipopeptides were evaluated for their effect upon infiltration on tobacco leaves as described previously. Peptide solutions of 50, 150 and 250 μM were infiltrated (100 μL) into the mesophylls of fully expanded tobacco leaves. Infiltrations were carried out in a single leaf, and for each peptide and dose, at least three leaves randomly distributed in different plants were infiltrated. Control infiltrations with water (negative control) or melittin (positive control) at the same molar concentration were performed. The appearance of symptoms on the leaves was followed for 48 h after infiltration and measured as a lesion diameter.

horse erythrocytes = assay: Hemolytic activity (hemoglobin release from erythrocytes); assay type: cell-based; details: 37 °C, ± confidence interval (α = 0.05); for Hemolysis (%) 250 µM / Hemolysis (%) 150 µM / Hemolysis (%) 375 µM: relative to melittin; for Hemolysis (%) 50 µM: absorbance 540 nm, relative to melittin 100 µM
Method: The hemolytic activity of the compounds was evaluated by determining hemoglobin release from erythrocyte suspensions of horse blood (5% vol/vol) (Oxoid) as previously described. Blood was centrifuged at 6000 g for 5 min, washed three times with tris(hydroxymethyl)aminomethane (TRIS) buffer (10 mM TRIS, 150 mM NaCl, pH 7.2) and diluted 10 times. Compounds were solubilized in TRIS buffer at 750, 500, 300 and 100 μM and mixed with horse erythrocytes (1:1 v/v). The mixture was incubated under continuous shaking for 1 h at 37 °C. Then, the tubes were centrifuged at 3500 g for 10 min, 80 μL aliquots of the supernatant transferred to 100-well microplates (Bioscreen), diluted with 80 μL water, and the absorbance measured at 540 nm (Bioscreen). Complete hemolysis was obtained by the addition of melittin at 100 μM (Sigma-Aldrich Corporation, Madrid, Spain). The percentage of hemolysis (H) was calculated using the equation: H = 100 × [(Op−Ob)/(Om−Ob)], where Op is the density for a given compound concentration, Ob for the buffer, and Om for the melittin-positive control.

[1] = D-amino acid lipopeptides, lesion diameter, 48 h, at least three leaves
[2] = D-amino acid lipopeptides, 100 µL infiltrated into tobacco leaves, lesion diameter, 48 h, at least three leaves
[3] = D-amino acid lipopeptides, 250 µM, 100 µL infiltrated into tobacco leaves, lesion diameter, 48 h, at least three leaves
[4] = Table 2, 250 µM infiltrated into tobacco leaves
[5] = D-amino acid lipopeptides, 250 µM, TRIS buffer pH 7.2, 1 h
[6] = D-amino acid lipopeptides, TRIS buffer pH 7.2, 1 h

| Molecule | Size of the lesion (mm) 50 µM (tobacco leaves; [1]) [mm] | Size of the lesion (mm) 150 µM (tobacco leaves; [2]) [mm] | Size of the lesion (mm) 250 µM (tobacco leaves; [3]) [mm] | Size of the lesion (mm) 250 µM (tobacco leaves; [4]) [mm] | Hemolysis (%) 250 µM (horse erythrocytes; Table 2, 250 µM, 1 h) [%] | necrosis in infiltrated tobacco leaves (tobacco leaves; positive control, 250 µM) [mm] | Hemolysis (%) 250 µM (horse erythrocytes; [5]) [%] | Hemolysis (%) 150 µM (horse erythrocytes; [6]) [%] | Hemolysis (%) 50 µM (horse erythrocytes; [6]) [%] | Hemolysis (%) 375 µM (horse erythrocytes; [6]) [%] |
| --- | --- | --- | --- | --- | --- | --- | --- | --- | --- | --- |
| CCCCCC(=O)NCCCC[C@H](NC(=O)[C@H](CCCCN)NC(=O)[C@H](CCCCN)NC(=O)[C@@H](Cc1ccccc1)NC(=O)[C@H](CC(C)C)NC(=O)[C@H](CCCCN)NC(=O)[C@H](CCCCN)NC(C)=O)C(=O)N[C@@H](CC(C)C)C(=O)N[C@@H](CCCCN)C(=O)N[C@@H](Cc1ccc(O)cc1)C(=O)N[C@@H](CC(C)C)C(N)=O [BP494, Ac-KKLfKKK(COC5H11)LKYL-NH2] (Ac-KKL[dF]KKK(Hexanoyl)LKYL-NH2) | 1 ± 1 | 6 ± 1 | 8 ± 1 | 8 ± 1 | 0.2 ± 0.2 |  |  |  |  |  |
| melittin [reference compound] |  |  |  |  |  | 18 |  |  |  |  |
| CCCC(=O)NCCCC[C@H](NC(=O)[C@H](CCCCN)NC(=O)[C@@H](Cc1ccccc1)NC(=O)[C@H](CC(C)C)NC(=O)[C@H](CCCCN)NC(=O)[C@H](CCCCN)NC(C)=O)C(=O)N[C@H](C(=O)N[C@@H](CC(C)C)C(=O)N[C@@H](CCCCN)C(=O)N[C@@H](Cc1ccc(O)cc1)C(=O)N[C@@H](CC(C)C)C(N)=O)[C@@H](C)CC [BP473, Ac-KKLfKK(COC3H7)ILKYL-NH2] | 2 ± 2 | 4 ± 0.9 | 5 ± 2 | 5 ± 2 |  |  | 84 ± 11 |  |  |  |
| CCCCCCCCCCCC(=O)NCCCC[C@H](NC(=O)[C@H](CCCCN)NC(=O)[C@H](CCCCN)NC(C)=O)C(=O)N[C@H](Cc1ccccc1)C(=O)N[C@@H](CCCCN)C(=O)N[C@@H](CCCCN)C(=O)N[C@H](C(=O)N[C@@H](CC(C)C)C(=O)N[C@@H](CCCCN)C(=O)N[C@@H](Cc1ccc(O)cc1)C(=O)N[C@@H](CC(C)C)C(N)=O)[C@@H](C)CC [BP500, Ac-KKK(COC11H23)fKKILKYL-NH2] (Ac-KKK(Lauroyl)[dF]KKILKYL-NH2) | 3 ± 2 | 6 ± 2 | 9 ± 3 | 9 ± 3 |  |  | 71 ± 8 | 71 ± 2 |  |  |
| CCCC(=O)NCCCC[C@H](NC(=O)[C@@H](NC(=O)[C@H](CCCCN)NC(=O)[C@H](CCCCN)NC(=O)[C@@H](Cc1ccccc1)NC(=O)[C@H](CC(C)C)NC(=O)[C@H](CCCCN)NC(=O)[C@H](CCCCN)NC(C)=O)[C@@H](C)CC)C(=O)N[C@@H](CCCCN)C(=O)N[C@@H](Cc1ccc(O)cc1)C(=O)N[C@@H](CC(C)C)C(N)=O [BP474, Ac-KKLfKKIK(COC3H7)KYL-NH2] (Ac-KKL[dF]KKIK(Butyryl)KYL-NH2) | 0 ± 0 | 2 ± 2 | 4 ± 2 | 4 ± 2 |  |  | 0 ± 0 | 0 ± 0 | 0 ± 0 | 0 ± 0 |
| CCCCCC(=O)N[C@@H](CCCCN)C(=O)N[C@@H](CCCCN)C(=O)N[C@@H](CC(C)C)C(=O)N[C@H](Cc1ccccc1)C(=O)N[C@@H](CCCCN)C(=O)N[C@@H](CCCCN)C(=O)N[C@H](C(=O)N[C@@H](CC(C)C)C(=O)N[C@@H](CCCCN)C(=O)N[C@@H](Cc1ccc(O)cc1)C(=O)N[C@@H](CC(C)C)C(N)=O)[C@@H](C)CC [BP472, C5H11CO-KKLfKKILKYL-NH2] | 2 ± 1 | 4 ± 1 | 4 ± 1 | 4 ± 1 |  |  | 78 ± 5 |  |  |  |
| CCCC(=O)NCCCC[C@H](NC(=O)[C@H](Cc1ccc(O)cc1)NC(=O)[C@H](CCCCN)NC(=O)[C@H](CC(C)C)NC(=O)[C@@H](NC(=O)[C@H](CCCCN)NC(=O)[C@H](CCCCN)NC(=O)[C@@H](Cc1ccccc1)NC(=O)[C@H](CC(C)C)NC(=O)[C@H](CCCCN)NC(=O)[C@H](CCCCN)NC(C)=O)[C@@H](C)CC)C(N)=O [BP496, Ac-KKLfKKILKYK(COC3H7)-NH2] (Ac-KKL[dF]KKILKYK(Butyryl)-NH2) | 3 ± 0.5 | 4 ± 0.5 | 10 ± 3 | 10 ± 3 |  |  | 1 ± 1 |  |  | 1 ± 0.5 |
| CCCCCC(=O)NCCCC[C@H](NC(=O)[C@H](Cc1ccc(O)cc1)NC(=O)[C@H](CCCCN)NC(=O)[C@H](CC(C)C)NC(=O)[C@@H](NC(=O)[C@H](CCCCN)NC(=O)[C@H](CCCCN)NC(=O)[C@@H](Cc1ccccc1)NC(=O)[C@H](CC(C)C)NC(=O)[C@H](CCCCN)NC(=O)[C@H](CCCCN)NC(C)=O)[C@@H](C)CC)C(N)=O [BP495, Ac-KKLfKKILKYK(COC5H11)-NH2] (Ac-KKL[dF]KKILKYK(Hexanoyl)-NH2) | 3 ± 0 | 6 ± 2 | 11 ± 2 | 11 ± 2 | 0.6 ± 1 |  |  |  |  |  |
| CCCCCCCCCCCC(=O)NCCCC[C@H](NC(=O)[C@H](CCCCN)NC(=O)[C@H](CCCCN)NC(=O)[C@@H](Cc1ccccc1)NC(=O)[C@H](CC(C)C)NC(=O)[C@H](CCCCN)NC(=O)[C@H](CCCCN)NC(C)=O)C(=O)N[C@@H](CC(C)C)C(=O)N[C@@H](CCCCN)C(=O)N[C@@H](Cc1ccc(O)cc1)C(=O)N[C@@H](CC(C)C)C(N)=O [BP489, Ac-KKLfKKK(COC11H23)LKYL-NH2] (Ac-KKL[dF]KKK(Lauroyl)LKYL-NH2) | 2 ± 0.5 | 6 ± 2 | 11 ± 1 | 11 ± 1 |  |  | 100 ± 6 |  |  | 100 ± 1 |
| CCCCCCCCCCCC(=O)NCCCC[C@@H](NC(=O)[C@H](CC(C)C)NC(=O)[C@H](CCCCN)NC(=O)[C@H](CCCCN)NC(C)=O)C(=O)N[C@@H](CCCCN)C(=O)N[C@@H](CCCCN)C(=O)N[C@H](C(=O)N[C@@H](CC(C)C)C(=O)N[C@@H](CCCCN)C(=O)N[C@@H](Cc1ccc(O)cc1)C(=O)N[C@@H](CC(C)C)C(N)=O)[C@@H](C)CC [BP488, Ac-KKLk(COC11H23)KKILKYL-NH2] | 4 ± 0.7 | 5 ± 1 | 13 ± 5 | 13 ± 5 |  |  | 86 ± 14 |  |  |  |
| CCCCCC(=O)NCCCC[C@@H](NC(=O)[C@H](CC(C)C)NC(=O)[C@H](CCCCN)NC(=O)[C@H](CCCCN)NC(C)=O)C(=O)N[C@@H](CCCCN)C(=O)N[C@@H](CCCCN)C(=O)N[C@H](C(=O)N[C@@H](CC(C)C)C(=O)N[C@@H](CCCCN)C(=O)N[C@@H](Cc1ccc(O)cc1)C(=O)N[C@@H](CC(C)C)C(N)=O)[C@@H](C)CC [BP484, Ac-KKLk(COC5H11)KKILKYL-NH2] | 0 ± 0 | 2 ± 2 | 7 ± 1 | 7 ± 1 |  |  | 10 ± 2 |  |  |  |
| CCCCCCCCCCCC(=O)NCCCC[C@H](NC(=O)[C@H](Cc1ccc(O)cc1)NC(=O)[C@H](CCCCN)NC(=O)[C@H](CC(C)C)NC(=O)[C@@H](NC(=O)[C@H](CCCCN)NC(=O)[C@H](CCCCN)NC(=O)[C@@H](Cc1ccccc1)NC(=O)[C@H](CC(C)C)NC(=O)[C@H](CCCCN)NC(=O)[C@H](CCCCN)NC(C)=O)[C@@H](C)CC)C(N)=O [BP476, Ac-KKLfKKILKYK(COC11H23)-NH2] (Ac-KKL[dF]KKILKYK(Lauroyl)-NH2) | 3 ± 0.6 | 3 ± 0.5 | 5 ± 0.5 | 5 ± 0.5 |  |  | 94 ± 10 |  |  | 94 ± 67 |
| CCCCCCCCCCCC(=O)NCCCC[C@H](NC(=O)[C@@H](NC(=O)[C@H](CCCCN)NC(=O)[C@H](CCCCN)NC(=O)[C@@H](Cc1ccccc1)NC(=O)[C@H](CC(C)C)NC(=O)[C@H](CCCCN)NC(=O)[C@H](CCCCN)NC(C)=O)[C@@H](C)CC)C(=O)N[C@@H](CCCCN)C(=O)N[C@@H](Cc1ccc(O)cc1)C(=O)N[C@@H](CC(C)C)C(N)=O [BP490, Ac-KKLfKKIK(COC11H23)KYL-NH2] (Ac-KKL[dF]KKIK(Lauroyl)KYL-NH2) | 4 ± 0.7 | 6 ± 2 | 11 ± 3 | 11 ±3 |  |  | 100 ± 6 |  | 100 ± 3 |  |
